Data reported in ChEMBL document CHEMBL5108020, “Design and synthesis of novel benzimidazole derivatives as potential Pseudomonas aeruginosa anti-biofilm agents inhibiting LasR: Evidence from comprehensive molecular dynamics simulation and in vitro investigation” (Eur J Med Chem, 2022).
Values after ≈ are worked out from the molar mass of the structure shown. Active and inactive are the calls of the source. The calls are words filed in the database; no cut-off is given here.

Experiments:
[1] = Inhibition of quorum sensing system in Pseudomonas aeruginosa assessed as inhibition of pyocyanin production at sub-MIC by absorbance based analysis
Pseudomonas aeruginosa [2] = experiment: Antibacterial activity against Pseudomonas aeruginosa assessed as inhibition of bacterial growth incubated for 24 hrs by CLSI broth microdilution method; type: functional; conditions: for MIC: Pseudomonas aeruginosa
[3] = Inhibition of quorum sensing system in Pseudomonas aeruginosa assessed as inhibition of rhamnolipid production at sub-MIC by spectrophotometric method
[4] = Inhibition of quorum sensing system in Pseudomonas aeruginosa assessed as inhibition of biofilm production at sub-MIC incubated for 24 hrs by crystal violet staining based analysis
Staphylococcus aureus = experiment: Antibacterial activity against Staphylococcus aureus ATCC 43300 assessed as inhibition of bacterial growth incubated for 24 hrs by agar diffusion method; type: functional, organism-based
Pseudomonas aeruginosa [5] = experiment: Antibacterial activity against Pseudomonas aeruginosa ATCC 27853 assessed as zone of growth inhibition incubated for 24 hrs by agar diffusion method; type: functional
Bacillus subtilis = experiment: Antibacterial activity against Bacillus subtilis ATCC 6633 assessed as inhibition of bacterial growth incubated for 24 hrs by agar diffusion method; type: functional, organism-based
Escherichia coli = experiment: Antibacterial activity against Escherichia coli ATCC 25922 assessed as inhibition of bacterial growth incubated for 24 hrs by agar diffusion method; type: functional, organism-based
Klebsiella pneumoniae = experiment: Antibacterial activity against Klebsiella pneumoniae ATCC 700603 assessed as inhibition of bacterial growth incubated for 24 hrs by agar diffusion method; type: functional, organism-based
Candida albicans = experiment: Antifungal activity against Candida albicans ATCC 60193 assessed as inhibition of fungal growth incubated for 48 hrs by agar diffusion method; type: functional, organism-based
[6] = Selectivity index, ratio of IC50 for human HDFa cells to MIC for antibacterial activity against Pseudomonas aeruginosa; type: toxicity; conditions: read-out: Selectivity Index
[7] = Cytotoxicity against human HDFa cells assessed as reduction in cell viability incubated for 24 hrs by MTT assay; type: toxicity, cell-based
[8] = Inhibition of quorum sensing system in Pseudomonas aeruginosa assessed as downregulation of rhlR gene expression at sub-MIC by fluorescence real time PCR analysis
[9] = Inhibition of quorum sensing system in Pseudomonas aeruginosa assessed as downregulation of lasR gene expression at sub-MIC by fluorescence real time PCR analysis

| Compound | inhibition [1] [%] | SubMIC (Pseudomonas aeruginosa [2]) [µM] | MIC (Pseudomonas aeruginosa [2]) [µM] | inhibition [3] [%] | inhibition [4] [%] | Activity (Staphylococcus aureus) | inhibition zone (IZ) (Pseudomonas aeruginosa [5]) [mm] | Activity (Bacillus subtilis) | Activity (Escherichia coli) | Activity (Klebsiella pneumoniae) | Activity (Candida albicans) | selectivity ratio [6] | IC50 at 24 h [7] [µg/mL] | inhibition [8] [%] | inhibition [9] [%] |
| --- | --- | --- | --- | --- | --- | --- | --- | --- | --- | --- | --- | --- | --- | --- | --- |
| c1ccc2[nH]c(-c3ccc(N4CCCCC4)cc3)nc2c1 | 63.6 | 50.4 | 203 (≈ 56.3 µg/mL) | 49.6 | 67.3 | Active | 19 |  |  |  |  |  |  |  |  |
| O=C(COc1ccc(-c2nc3ccccc3[nH]2)cc1)Nc1ccccc1[N+](=O)[O-] | 60.3 | 36 | 145 (≈ 56.2 µg/mL) | 44.6 | 63.8 |  | 15 | Active |  |  |  |  |  |  |  |
| COc1ccc(NC(=O)COc2ccc(-c3nc4cc(C)ccc4[nH]3)cc2)cc1 | 29 | 9 | 36.1 (≈ 14 µg/mL) | 12.6 | 36.7 |  | 15 | Active | Active |  |  |  |  |  |  |
| O=C(COc1ccc(-c2nc3cc(Cl)ccc3[nH]2)cc1)Nc1ccc(Cl)cc1 | 13.4 | 16.9 | 68.2 (≈ 28.1 µg/mL) | 3.7 | 31 |  | 17 |  | Active | Active |  |  |  |  |  |
| O=C(COc1ccc(-c2nc3ccccc3[nH]2)cc1)Nc1ccc([N+](=O)[O-])cc1 | 57.6 | 36 | 145 (≈ 56.2 µg/mL) | 35.2 | 63.6 |  | 17 |  |  |  |  |  |  |  |  |
| Cc1ccc(NC(=O)COc2ccc(-c3nc4cc(Cl)ccc4[nH]3)cc2)cc1 | 24.5 | 8.9 | 35.7 (≈ 14 µg/mL) | 11.4 | 31.3 |  | 18 |  |  | Active |  |  |  |  |  |
| COc1ccc(NC(=O)COc2ccc(-c3nc4cc(Cl)ccc4[nH]3)cc2)cc1 | 28.9 | 8.5 | 34.3 (≈ 14 µg/mL) | 13.8 | 39.2 |  | 17 | Active |  |  | Active |  |  |  |  |
| O=C(COc1ccc(-c2nc3cc(Cl)ccc3[nH]2)cc1)Nc1ccccc1 | 35.5 | 18.5 | 74.4 (≈ 28.1 µg/mL) | 20.7 | 53.1 |  | 15 |  |  |  |  | 3.63 | 102 (≈ 270 µM) |  |  |
| Cc1ccc2[nH]c(-c3ccc(OCC(=O)Nc4ccc([N+](=O)[O-])cc4)cc3)nc2c1 | 33.7 | 17.4 | 69.9 (≈ 28.1 µg/mL) | 15 | 44.1 |  | 15 | Active |  |  |  |  |  |  |  |
| O=C(COc1ccc(-c2nc3ccccc3[nH]2)cc1)Nc1ccccc1 | 36.7 | 40.7 | 164 (≈ 56.2 µg/mL) | 28.2 | 51.5 |  | 19 |  |  |  |  |  |  |  |  |
| Cc1ccc2[nH]c(-c3ccc(OCC(=O)Nc4ccc(F)cc4)cc3)nc2c1 | 55.8 | 9.3 | 37.2 (≈ 14 µg/mL) | 35.2 | 59.6 |  | 19 | Active |  |  |  |  |  |  |  |
| COc1ccc(NC(=O)COc2ccc(-c3nc4ccccc4[nH]3)cc2)cc1 | 61.8 | 37.4 | 151 (≈ 56.2 µg/mL) | 46.4 | 67.1 | Active | 18 |  |  |  |  |  |  |  |  |
| O=C(COc1ccc(-c2nc3cc(Cl)ccc3[nH]2)cc1)Nc1ccc(F)cc1 | 32.8 | 8.8 | 35.3 (≈ 14 µg/mL) | 18.1 | 45 |  | 19 |  |  | Active | Active |  |  |  |  |
| Cc1ccc2[nH]c(-c3ccc(OCC(=O)Nc4ccccc4)cc3)nc2c1 | 54.3 | 19.5 | 78.7 (≈ 28.1 µg/mL) | 33 | 56.3 |  | 15 | Active |  |  |  |  |  |  |  |
| Cc1ccc2[nH]c(-c3ccc(OCC(=O)Nc4ccccc4[N+](=O)[O-])cc3)nc2c1 | 60 | 17.4 | 69.9 (≈ 28.1 µg/mL) | 42.3 | 64.9 |  | 14 | Active |  |  |  | 14.6 | 411 (≈ 1020 µM) |  |  |
| C[C@@H](O)[C@H]1C(=O)N2C(C(=O)O)=C(SCCNC=N)C[C@H]12 [IMIPENEM ANHYDROUS] |  |  | 93.9 (≈ 28.1 µg/mL) |  |  |  | 19 |  |  |  |  |  |  |  |  |

| Compound | inhibition [1] [%] | SubMIC (Pseudomonas aeruginosa [2]) [µM] | MIC (Pseudomonas aeruginosa [2]) [µM] | inhibition [3] [%] | inhibition [4] [%] | Activity (Staphylococcus aureus) | inhibition zone (IZ) (Pseudomonas aeruginosa [5]) [mm] | Activity (Bacillus subtilis) | Activity (Escherichia coli) | Activity (Klebsiella pneumoniae) | Activity (Candida albicans) | selectivity ratio [6] | IC50 at 24 h [7] [µg/mL] | inhibition [8] [%] | inhibition [9] [%] |
| --- | --- | --- | --- | --- | --- | --- | --- | --- | --- | --- | --- | --- | --- | --- | --- |
| c1ccc2[nH]c(-c3ccc(N4CCOCC4)cc3)nc2c1 | 55.2 | 50.1 | 201 (≈ 56.2 µg/mL) | 35.7 | 60.5 |  | 18 |  |  | Active |  |  |  |  |  |
| Cc1ccc2[nH]c(-c3ccc(OCC(=O)Nc4ccccc4C)cc3)nc2c1 | 31 | 18.8 | 57.7 (≈ 21.4 µg/mL) | 13.6 | 39.5 |  | 14 |  |  |  | Active |  |  |  |  |
| O=C(COc1ccc(-c2nc3ccccc3[nH]2)cc1)Nc1ccc(Cl)cc1 | 58 | 37 | 149 (≈ 56.2 µg/mL) | 34.4 | 63.1 |  | 17 |  |  | Active | Active |  |  |  |  |
| O=C(COc1ccc(-c2nc3cc(Cl)ccc3[nH]2)cc1)Nc1ccccc1[N+](=O)[O-] | 35.8 | 16.5 | 66.5 (≈ 28.1 µg/mL) | 20.4 | 51.8 |  | 16 |  |  | Active |  |  |  |  |  |
| Cc1ccc2[nH]c(-c3ccc(OCC(=O)Nc4ccc(Cl)cc4)cc3)nc2c1 | 38.2 | 8.9 | 35.7 (≈ 14 µg/mL) | 29.6 | 55.7 |  | 19 | Active |  |  |  |  |  |  |  |
| CC[C@H]1OC(=O)[C@H](C)[C@@H](O[C@H]2C[C@@](C)(OC)[C@@H](O)[C@H](C)O2)[C@H](C)[C@@H](O[C@@H]2O[C@H](C)C[C@H](N(C)C)[C@H]2O)[C@](C)(O)C[C@@H](C)CN(C)[C@H](C)[C@@H](O)[C@]1(C)O [AZITHROMYCIN] | 65 | 20.1 | 85.4 (≈ 64 µg/mL) | 55.2 | 52.5 |  |  |  |  |  |  |  |  | 41.5 | 40.8 |
| Cc1ccccc1NC(=O)COc1ccc(-c2nc3ccccc3[nH]2)cc1 | 68 | 39.1 | 157 (≈ 56.2 µg/mL) | 51.8 | 68.9 |  | 16 | Active |  |  |  | 6.01 | 338 (≈ 946 µM) | 16.3 | 26 |
| CN1CCN(c2ccc(-c3nc4ccccc4[nH]3)cc2)CC1 | 68.7 | 48 | 193 (≈ 56.4 µg/mL) | 54 | 71.7 | Active | 20 |  | Active | Active | Active | 3.86 | 217 (≈ 742 µM) |  | 61.7 |
| c1ccc2[nH]c(-c3ccc(-n4ccnc4)cc3)nc2c1 | 34 | 26.8 | 109 (≈ 28.3 µg/mL) | 20.1 | 46.1 |  | 18 |  |  | Active |  |  |  |  |  |
| O=C(COc1ccc(-c2nc3cc(Cl)ccc3[nH]2)cc1)Nc1ccc([N+](=O)[O-])cc1 | 14.8 | 16.5 | 66.5 (≈ 28.1 µg/mL) | 7 | 32.5 |  | 16 |  |  | Active |  |  |  |  |  |
| Cc1ccccc1NC(=O)COc1ccc(-c2nc3cc(Cl)ccc3[nH]2)cc1 | 6.5 | 17.8 | 71.7 (≈ 28.1 µg/mL) | 3 | 29 |  | 16 |  |  | Active |  |  |  |  |  |
| Cc1ccc(NC(=O)COc2ccc(-c3nc4ccccc4[nH]3)cc2)cc1 | 36.4 | 39.1 | 157 (≈ 56.2 µg/mL) | 25.1 | 52.4 |  | 13 |  |  |  |  |  |  |  |  |
| O=C(COc1ccc(-c2nc3ccccc3[nH]2)cc1)Nc1ccc(F)cc1 | 37 | 38.7 | 156 (≈ 56.2 µg/mL) | 27.7 | 51.8 |  | 17 |  |  |  |  |  |  |  |  |
| C/C(=C\C(=O)OCCCCCCCCC(=O)O)C[C@@H]1OC[C@H](C[C@@H]2O[C@H]2[C@@H](C)[C@H](C)O)[C@@H](O)[C@H]1O [MUPIROCIN] |  |  |  |  |  |  |  |  |  |  |  |  | 161 (≈ 322 µM) |  |  |
| Cc1ccc(NC(=O)COc2ccc(-c3nc4cc(C)ccc4[nH]3)cc2)cc1 | 60 | 18.8 | 57.7 (≈ 21.4 µg/mL) | 37.8 | 64.9 |  | 16 |  | Active |  |  |  |  |  |  |
